# Experimental data as given in patent US20100324096A1, “Whitening Agent And Skin External Preparation” (SHISEIDO COMPANY LTD., priority 2008, published 2010).
# System: Mouse B16 melanoma cells
# Experiment: Melanin production inhibition test
# Assay type: cell-based
# Details: Mus musculus, 72 h, Table 1, 3 days, minimum non-cytotoxic concentration at which melanin amount was 80% or less, read-out: Inhibitory effect on melanin production
# Procedure: A test for melanin production inhibition by the compounds of the formula (1) was conducted. The test method is as follows.
# Melanin Production Inhibition Test
# (1) Inoculation of Cells and Addition of Test Substances
# Mouse B16 melanoma cells were inoculated in a six well plate at 100,000 cells/well. The next day, test substance solutions (solvent: DMSO) were added.
# (2) Cell Proliferation Test
# Three days after the addition of the test substance solution, the medium was removed by aspiration. Then 1 ml of EMEM medium containing 10% Alamar Blue solution was added, and a reaction was allowed to proceed at 37° C. After 30 minutes, 100 μL of the reaction mixture was transferred to a 96 well plate and fluorescence was measured at an excitation wavelength of 544 nm and a measurement wavelength of 590 nm. Using the value thus measured as a relative value of cell count, a ratio of the cell count (% cell count) of the test substance-added group to the test substance-absent group (group in which only the solvent was added) was calculated. The higher the % cell count, the lower the cytotoxicity. It was determined that a compound having the % cell count of 80% or more was non-cytotoxic, and that a compound having the % cell count of less than 80% was cytotoxic.
# (3) Quantification of Melanin
# The cells after the cell proliferation test were washed with PBS three times, and then lysed by addition of 200 μL of 1M NaOH to measure an absorbance at 475 nm. Using the value thus measured as a relative value of the melanin amount, a ratio of the melanin amount (%) of the test substance-added group to the test substance-absent group (group in which only the solvent was added) was calculated. The lower the ratio of the melanin amount, the higher the melanin production-inhibitory effect. […] The inhibitory effect on melanin production was evaluated according to the following criteria.
# ⊚: the minimum concentration for inhibition of melanin production was 1 ppm or less.
# ◯: the minimum concentration for inhibition of melanin production was more than 1 ppm and 10 ppm or less.
row,SMILES,minimal effective concentration
1,Cc1ccc(Nc2nc(C(C)(C)C)cs2)c(C)c1 [Compound 5],≤ 1 µg/mL
2,c1ccc(Nc2nc(-c3ccccn3)cs2)cc1 [Compound 4],≤ 1 µg/mL
3,Cc1ccccc1Nc1nc(-c2ccncc2)cs1 [Compound 1],≤ 1 µg/mL
4,CCc1ccccc1Nc1nc(-c2ccc(O)c(O)c2)cs1 [Compound 9],≤ 1 µg/mL
5,COc1ccc(-c2nc(Nc3c(C)cccc3C)sc2C)cc1 [Compound 7],≤ 1 µg/mL
6,CCc1ccccc1Nc1nc(-c2ccccn2)cs1 [Compound 3],≤ 1 µg/mL
7,CCc1ccccc1Nc1nc(-c2ccc(O)cc2O)cs1 [Compound 10],≤ 1 µg/mL
8,"Cc1ccccc1Nc1nc(-c2ccccn2)cs1 [Compound 2, 4-(pyridin-2-yl)-N-o-toluylthiazol-2-amine]",≤ 1 µg/mL

# Same assay, conditions: Mus musculus, 72 h, Table 3, 3 days, minimum non-cytotoxic concentration at which melanin amount was 80% or less, read-out: Inhibitory effect on melanin production
row,SMILES,minimal effective concentration
1,C=CCN(C1=NC(C)(C)C(=C)S1)c1ccc(C)cc1C [Compound 31],≤ 1 µg/mL
2,C=C1SC(Nc2ccc(C)cc2C)=NC1(C)C [Compound 32],≤ 1 µg/mL

# Same assay, conditions: Mus musculus, 72 h, Table 4, 3 days, minimum non-cytotoxic concentration at which melanin amount was 80% or less, read-out: Inhibitory effect on melanin production
row,SMILES,minimal effective concentration
1,O=C(Nc1nccs1)C1(c2ccccc2)CCCC1 [Compound 36],≤ 1 µg/mL

# Same assay, conditions: Table 1, 3 days, minimum non-cytotoxic concentration at which melanin amount was 80% or less
row,SMILES,Inhibitory effect on melanin production
1,Cc1cccc(C)c1Nc1nc(-c2ccccc2)cs1 [Compound 8],⊚ (the minimum concentration for inhibition of melanin production was 1 ppm or less.)
2,CC(=O)c1sc(Nc2ccccc2C)nc1C [Compound 6],∘

# Same assay, conditions: Table 3, 3 days, minimum non-cytotoxic concentration at which melanin amount was 80% or less
row,SMILES,Inhibitory effect on melanin production
1,c1ccc(NC2=NCCS2)cc1 [Compound 20],∘
2,CCC1CSC(Nc2ccccc2)=N1 (centres unmarked) [Compound 19],⊚ (the minimum concentration for inhibition of melanin production was 1 ppm or less.)
3,CC1CN=C(Nc2ccccc2)S1 (centres unmarked) [Compound 21],⊚ (the minimum concentration for inhibition of melanin production was 1 ppm or less.)
4,Cc1ccccc1NC1=NCC(C)(C)S1 [Compound 28],⊚ (the minimum concentration for inhibition of melanin production was 1 ppm or less.)
5,Cc1ccc(NC2=NC(C)CS2)c(C)c1 (centres unmarked) [Compound 27],∘
6,COc1cccc(NC2=NC(C)(C)CS2)c1 [Compound 25],∘
7,COc1ccccc1NC1=NCCS1 [Compound 23],⊚ (the minimum concentration for inhibition of melanin production was 1 ppm or less.)
8,COc1ccccc1NC1=NC(C)(C)CS1 [Compound 26],∘
9,Cc1cc(C)c(NC2=NC(CO)(CO)CS2)c(C)c1 [Compound 30],∘
10,Cc1ccccc1NC1=NCCS1 [Compound 22],⊚ (the minimum concentration for inhibition of melanin production was 1 ppm or less.)
11,OCC1(CO)CSC(Nc2ccccc2)=N1 [Compound 29],∘
12,COc1ccc(NC2=NC(C)(C)CS2)cc1 [Compound 24],∘

# Same assay, conditions: Table 4, 3 days, minimum non-cytotoxic concentration at which melanin amount was 80% or less
row,SMILES,Inhibitory effect on melanin production
1,Cc1ccc2oc(Nc3nc(C)cc(O)n3)nc2c1 [Compound 37],∘
2,Cc1nc(NC(C)(C)C)sc1-c1ccccc1 [Compound 33],⊚ (the minimum concentration for inhibition of melanin production was 1 ppm or less.)
3,O=C(Nc1nc2c(s1)CCCC2)c1ccccc1 [Compound 35],⊚ (the minimum concentration for inhibition of melanin production was 1 ppm or less.)
4,Cc1ccc(C(=O)Nc2nc(C)cs2)cc1 [Compound 34],∘

# Same assay, conditions: Table 5, 3 days, minimum non-cytotoxic concentration at which melanin amount was 80% or less
row,SMILES,Inhibitory effect on melanin production
1,CC1(C)CN=C(NC2CCCCC2)S1 [Compound 39],∘
2,CC1(C)CN=C(Nc2cccnc2)S1 [Compound 38],∘
3,CC1(C)CN=C(NCc2ccccc2)S1 [Compound 40],∘
